species: Mus musculus; experiment: Anticarcinoma activity of Diazomethyl Ketone against Ehrlich ascites Carcinoma pharmacological screens were reported; 8/8; type: functional; conditions: not given

Row | Structure (SMILES) | Survival after 10 days
1 | Cc1ccc(S(=O)(=O)NC(C)C(=O)CCl)cc1 (stereo unspecified) | 8
2 | Cc1ccc(S(=O)(=O)NC(CC(C)C)C(=O)CCl)cc1 (stereo unspecified) | 8

species: Mus musculus; experiment: Anticarcinoma activity of Diazomethyl Ketone against Ehrlich ascites Carcinoma pharmacological screens were reported; 5/6; type: functional; conditions: not given

Row | Structure (SMILES) | Survival after 10 days
3 | CCC(C)C(NS(=O)(=O)c1ccc(C)cc1)C(=O)C=[N+]=[N-] (stereo unspecified) | 5
4 | Cc1ccc(S(=O)(=O)NCCCCCC(=O)CCl)cc1 | 5
5 | Cc1ccc(S(=O)(=O)N[C@H](C)C(=O)CCl)cc1 | 5
6 | Cc1ccc(S(=O)(=O)NCCCCCC(=O)C=[N+]=[N-])cc1 | 5
7 | Cc1ccc(S(=O)(=O)NC(C)C(=O)C=[N+]=[N-])cc1 (stereo unspecified) | 5
8 | Cc1ccc(S(=O)(=O)NCC(=O)CCl)cc1 | 5
9 | C=COC(=O)C(Cc1ccccc1)NS(=O)(=O)c1ccc(C)cc1 (stereo unspecified) | 5
10 | Cc1ccc(S(=O)(=O)NCCC(=O)CCl)cc1 | 5
11 | Cc1ccc(S(=O)(=O)NC(Cc2ccc(O)cc2)C(=O)OCC#N)cc1 (stereo unspecified) | 5

species: Mus musculus; experiment: Anticarcinoma activity of Diazomethyl Ketone against Ehrlich ascites Carcinoma pharmacological screens were reported; 5/8; type: functional; conditions: not given

Row | Structure (SMILES) | Survival after 10 days
12 | CCC(C)C(NS(=O)(=O)c1ccc(C)cc1)C(=O)CCl (stereo unspecified) | 5
13 | Cc1ccc(S(=O)(=O)N2CCCC2C(=O)CCl)cc1 (stereo unspecified) | 5

system: not listed separately; experiment: Screening of Ehrlich ascites carcinoma cells in mice at 20 mg/kg/day intraperitoneally.; type: functional, Mus musculus; conditions: route intraperitoneal

Row | Structure (SMILES) | ascrit
14 | CCC(C)C(NS(=O)(=O)c1ccc(C)cc1)C(=O)C=[N+]=[N-] (stereo unspecified) | 45.4
15 | Cc1ccc(S(=O)(=O)NCCCCCC(=O)CCl)cc1 | 0.01
16 | Cc1ccc(S(=O)(=O)N[C@H](C)C(=O)CCl)cc1 | 18.9
17 | CCC(C)C(NS(=O)(=O)c1ccc(C)cc1)C(=O)CCl (stereo unspecified) | 34.5
18 | Cc1ccc(S(=O)(=O)NCCCCCC(=O)C=[N+]=[N-])cc1 | 42.5
19 | Cc1ccc(S(=O)(=O)N2CCCC2C(=O)CCl)cc1 (stereo unspecified) | 30
20 | Cc1ccc(S(=O)(=O)NC(C)C(=O)CCl)cc1 (stereo unspecified) | 46.5
21 | Cc1ccc(S(=O)(=O)NCC(=O)CCl)cc1 | 0.01
22 | Cc1ccc(S(=O)(=O)NC(CC(C)C)C(=O)CCl)cc1 (stereo unspecified) | 25.5
23 | C=COC(=O)C(Cc1ccccc1)NS(=O)(=O)c1ccc(C)cc1 (stereo unspecified) | 19.2
24 | Cc1ccc(S(=O)(=O)NCCC(=O)CCl)cc1 | 0.1
25 | Cc1ccc(S(=O)(=O)NC(Cc2ccc(O)cc2)C(=O)OCC#N)cc1 (stereo unspecified) | 15.8

species: Mus musculus; experiment: Volume of fluid collected 8 days after tumor transplantation in mice.; type: functional; design: unit not given beside the values; conditions: not given

Row | Structure (SMILES) | Volume of ascrit fluid
26 | CCC(C)C(NS(=O)(=O)c1ccc(C)cc1)C(=O)C=[N+]=[N-] (stereo unspecified) | 1.92
27 | Cc1ccc(S(=O)(=O)NCCCCCC(=O)CCl)cc1 | 0.02
28 | Cc1ccc(S(=O)(=O)N[C@H](C)C(=O)CCl)cc1 | 0.25
29 | CCC(C)C(NS(=O)(=O)c1ccc(C)cc1)C(=O)CCl (stereo unspecified) | 1.34
30 | Cc1ccc(S(=O)(=O)NCCCCCC(=O)C=[N+]=[N-])cc1 | 0.5
31 | Cc1ccc(S(=O)(=O)NC(C)C(=O)C=[N+]=[N-])cc1 (stereo unspecified) | 1.02
32 | Cc1ccc(S(=O)(=O)N2CCCC2C(=O)CCl)cc1 (stereo unspecified) | 2.7
33 | Cc1ccc(S(=O)(=O)NC(C)C(=O)CCl)cc1 (stereo unspecified) | 1.6
34 | Cc1ccc(S(=O)(=O)NCC(=O)CCl)cc1 | 0.04
35 | Cc1ccc(S(=O)(=O)NC(CC(C)C)C(=O)CCl)cc1 (stereo unspecified) | 2.65
36 | C=COC(=O)C(Cc1ccccc1)NS(=O)(=O)c1ccc(C)cc1 (stereo unspecified) | 7.74
37 | Cc1ccc(S(=O)(=O)NCCC(=O)CCl)cc1 | 0.02
38 | Cc1ccc(S(=O)(=O)NC(Cc2ccc(O)cc2)C(=O)OCC#N)cc1 (stereo unspecified) | 9.36

species: Mus musculus; experiment: Percentage inhibition as antitumor activity in carcinoma CF1 male mice.; type: functional; design: concentration or dose not given beside the values; conditions: not given

Row | Structure (SMILES) | Inhibition
39 | CCC(C)C(NS(=O)(=O)c1ccc(C)cc1)C(=O)C=[N+]=[N-] (stereo unspecified) | 74.7%
40 | Cc1ccc(S(=O)(=O)NCCCCCC(=O)CCl)cc1 | 99.9%
41 | Cc1ccc(S(=O)(=O)N[C@H](C)C(=O)CCl)cc1 | 98.6%
42 | CCC(C)C(NS(=O)(=O)c1ccc(C)cc1)C(=O)CCl (stereo unspecified) | 86.6%
43 | Cc1ccc(S(=O)(=O)NCCCCCC(=O)C=[N+]=[N-])cc1 | 93.8%
44 | Cc1ccc(S(=O)(=O)NC(C)C(=O)C=[N+]=[N-])cc1 (stereo unspecified) | 87.1%
45 | Cc1ccc(S(=O)(=O)N2CCCC2C(=O)CCl)cc1 (stereo unspecified) | 76.5%
46 | Cc1ccc(S(=O)(=O)NC(C)C(=O)CCl)cc1 (stereo unspecified) | 78.4%
47 | Cc1ccc(S(=O)(=O)NCC(=O)CCl)cc1 | 99.9%
48 | Cc1ccc(S(=O)(=O)NC(CC(C)C)C(=O)CCl)cc1 (stereo unspecified) | 80.4%
49 | C=COC(=O)C(Cc1ccccc1)NS(=O)(=O)c1ccc(C)cc1 (stereo unspecified) | 56.8%
50 | Cc1ccc(S(=O)(=O)NCCC(=O)CCl)cc1 | 99.9%
51 | Cc1ccc(S(=O)(=O)NC(Cc2ccc(O)cc2)C(=O)OCC#N)cc1 (stereo unspecified) | 56%

system: P388; experiment: Survival of the mice for average number of days; expressed as average survival days; type: functional, Mus musculus; conditions: not given

Row | Structure (SMILES) | Survival
52 | CCC(C)C(NS(=O)(=O)c1ccc(C)cc1)C(=O)C=[N+]=[N-] (stereo unspecified) | 12.1 days
53 | Cc1ccc(S(=O)(=O)NCCCCCC(=O)CCl)cc1 | 11.2 days
54 | Cc1ccc(S(=O)(=O)N[C@H](C)C(=O)CCl)cc1 | 11 days
55 | CCC(C)C(NS(=O)(=O)c1ccc(C)cc1)C(=O)CCl (stereo unspecified) | 10.5 days
56 | Cc1ccc(S(=O)(=O)NCCCCCC(=O)C=[N+]=[N-])cc1 | 11.8 days
57 | Cc1ccc(S(=O)(=O)NC(C)C(=O)C=[N+]=[N-])cc1 (stereo unspecified) | 11.6 days
58 | Cc1ccc(S(=O)(=O)N2CCCC2C(=O)CCl)cc1 (stereo unspecified) | 10.2 days
59 | Cc1ccc(S(=O)(=O)NCC(=O)CCl)cc1 | 13.2 days
60 | Cc1ccc(S(=O)(=O)NC(CC(C)C)C(=O)CCl)cc1 (stereo unspecified) | 10.3 days
61 | Cc1ccc(S(=O)(=O)NCCC(=O)CCl)cc1 | 9.8 days

system: P388; experiment: T/C expresses antileukemic activity measured as tested over that of control.; type: functional, Mus musculus; conditions: not given

Row | Structure (SMILES) | T/C
62 | Cc1ccc(S(=O)(=O)NCCCCCC(=O)CCl)cc1 | 116
63 | Cc1ccc(S(=O)(=O)N[C@H](C)C(=O)CCl)cc1 | 114
64 | CCC(C)C(NS(=O)(=O)c1ccc(C)cc1)C(=O)CCl (stereo unspecified) | 109
65 | Cc1ccc(S(=O)(=O)NCCCCCC(=O)C=[N+]=[N-])cc1 | 122
66 | Cc1ccc(S(=O)(=O)NC(C)C(=O)C=[N+]=[N-])cc1 (stereo unspecified) | 120
67 | Cc1ccc(S(=O)(=O)N2CCCC2C(=O)CCl)cc1 (stereo unspecified) | 106
68 | Cc1ccc(S(=O)(=O)NC(CC(C)C)C(=O)CCl)cc1 (stereo unspecified) | 107
69 | Cc1ccc(S(=O)(=O)NCCC(=O)CCl)cc1 | 101

system: P388; experiment: T/C expresses antileukemic activity measured as tested over that of control; T/C >/= 120 for significant activity; type: functional, Mus musculus; conditions: not given

Row | Structure (SMILES) | T/C
70 | CCC(C)C(NS(=O)(=O)c1ccc(C)cc1)C(=O)C=[N+]=[N-] (stereo unspecified) | 126
71 | Cc1ccc(S(=O)(=O)NCC(=O)CCl)cc1 | 137

From ChEMBL document CHEMBL1121402, “Antitumor agents: diazomethyl ketone and chloromethyl ketone analogues prepared from N-tosyl amino acids” (1980)
